Results taken from patent US20110313044A1, “Polymorphs of Suberoylanilide Hydroxamic Acid” (URQUIMA S.A., priority 2010, published 2011).
≈ marks a conversion by molar mass, not a printed value. Each block holds one compound with its values, some of them ahead of it.

Tests used:
physchem = settings: thermodynamic from solid
[1] = Physical stability of crystalline forms at room temperature (PXRD, DSC characterisation)
Source text: The crystalline products obtained have been characterised by XPRD (FIG. 1 and Table 1) and DSC (FIG. 2).

Hygroscopicity test = type: physicochemical
[2] = Solubility test Form α vs Form I; settings: for solubility: thermodynamic from solid

solubility (physchem; aqueous buffer): 0.1 mg/mL (≈ 0.378 mM)
solubility (physchem; organic solvent or mixture): 21.8 mg/mL (≈ 82.5 mM)
SMILES: O=C(CCCCCCC(=O)Nc1ccccc1)NO [Form I, suberoylanilide hydroxamic acid]

Polymorph stability [1]: unstable at room temperature
SMILES: O=C(CCCCCCC(=O)Nc1ccccc1)NO [Form II, suberoylanilide hydroxamic acid]

Polymorph stability [1]: stable at room temperature
SMILES: O=C(CCCCCCC(=O)Nc1ccccc1)NO [Form III, suberoylanilide hydroxamic acid]

Hygroscopicity (Hygroscopicity test): non-hygroscopic
solubility ([2]; HCl 2M, aqueous buffer): 0.19 mg/mL (≈ 0.719 mM)
Solubility versus Form I ([2]; methanol and HCl 2M, in words): higher solubility
solubility ([2]; methanol, organic solvent or mixture): 30 mg/mL (≈ 113 mM)
Polymorph stability [1]: stable at room temperature
SMILES: O=C(CCCCCCC(=O)Nc1ccccc1)NO [Form α, suberoylanilide hydroxamic acid]
